Our source for the IC50 values is US20110052562A1, “BENZIMIDAZOLES AND ANALOGS AS RHO KINASE INHIBITORS” (The Scripps Research Institute, priority 2007, published 2011).

One experiment relates to smooth muscle cells. The experiment can be described thus: Myosin Light Chain Double Phosphorylation Assay (ppMLC, cell assay). The experiment is classed as cell-based. The conditions noted are these: serum starved smooth muscle cells, compound 1 h, LPA 30 min. The method, then:
Myosin Light Chain Double Phosphorylation Assays (ppMLC, cell assay).
Serum starved smooth muscle cells were incubated with compound for 1 h before induction of myosin light chain phosphorylation by LPA for 30 min. Cells were washed and fixed before staining for phosphorylated myosin light chain and DNA. Phosphorylation status was quantitated with the LI-COR Odyssey Imager. […] For example, the IC50 of Example 169 is 6 nM.

The next experiment has as its target Rhok2 (Homo sapiens, UniProt O75116). Nature of the experiment: Enzymatic Rho kinase assay (Kinase-Glo luminescence, S6 peptide substrate). The experiment is classed as biochemical. The conditions noted are these: Rhok2 enzyme, 2 hours at 25 degrees Celsius. The method, then: Enzymatic Rho kinase (ROCK I and ROCK II) Assays.
The assay is based on ability of Rhok2 to phosphorylate a specific peptide sequence derived from its substrate—ribosomal protein S6 (amino acid residues 229-239, (LCB-[…]-NH2)). Rhok2 uses ATP as a donor of phosphate for the phosphorylation of the substrate, which leads to the depletion of ATP in the reaction mix. An assay kit (“Kinase-Glo”, Promega) was used to quantify enzyme activity. Using this kit, residual amounts of ATP are measured by a secondary enzymatic reaction, through which luciferase utilizes the remaining ATP to produce luminescence. Luminescent signal is directly proportional to ATP concentration and inversely proportional to Rhok2 activity.
This dose response assay was conducted in 1536 well plate format. Each concentration was tested nominally in triplicate. […] Plates were incubated for 10 minutes and luminescence was read on Perkin-Elmer Viewlux for 60 seconds. […] The percent inhibition for each well has been calculated as follows: % inhibition=(test compound−median_negative_control)/(median_positive_control−median_negative_control)*100 where the positive control is Y-27632 (13 micromolar) and negative control is DMSO only. […]
In general terms: Kinase-Glo reads ATP consumption through a luciferase reaction.

The next experiment relates to N2a cells. Nature of the experiment: Neurite Length Assay (N2a, cell assay). The conditions noted are these: Mus musculus, neurite retraction induced by 5 uM LPA. The experiment is classed as cell-based. The procedure: Neurite Length Assay (N2a, Cell Assay).
N2a cells are maintained in DMEM/FBS at 37 C and 5% CO2. For the experiment the cells were plated on a poly-D-lysine coated 96-well tissue culture plate. After attachment, cell differentiation was induced for 2 days by addition of 10 uM retinoic acid. Cells were treated for 1 h with a dilution of compounds in 0.3% DMSO final concentration before neurite retraction was induced by 5 uM LPA. Cells were stained for tubulin and nuclei and images were acquired on a INCell 1000 workstation. Images were analyzed using the developer toolbox and neurite length was quantitated. […] For example, the IC50 of Example 169 is 4 nM.

As usually defined, the IC50 is the midpoint of a concentration-inhibition curve. A higher IC50 goes with lower potency.

Sequence of Rhok2 (O75116 whole entry, the tested form may be a part): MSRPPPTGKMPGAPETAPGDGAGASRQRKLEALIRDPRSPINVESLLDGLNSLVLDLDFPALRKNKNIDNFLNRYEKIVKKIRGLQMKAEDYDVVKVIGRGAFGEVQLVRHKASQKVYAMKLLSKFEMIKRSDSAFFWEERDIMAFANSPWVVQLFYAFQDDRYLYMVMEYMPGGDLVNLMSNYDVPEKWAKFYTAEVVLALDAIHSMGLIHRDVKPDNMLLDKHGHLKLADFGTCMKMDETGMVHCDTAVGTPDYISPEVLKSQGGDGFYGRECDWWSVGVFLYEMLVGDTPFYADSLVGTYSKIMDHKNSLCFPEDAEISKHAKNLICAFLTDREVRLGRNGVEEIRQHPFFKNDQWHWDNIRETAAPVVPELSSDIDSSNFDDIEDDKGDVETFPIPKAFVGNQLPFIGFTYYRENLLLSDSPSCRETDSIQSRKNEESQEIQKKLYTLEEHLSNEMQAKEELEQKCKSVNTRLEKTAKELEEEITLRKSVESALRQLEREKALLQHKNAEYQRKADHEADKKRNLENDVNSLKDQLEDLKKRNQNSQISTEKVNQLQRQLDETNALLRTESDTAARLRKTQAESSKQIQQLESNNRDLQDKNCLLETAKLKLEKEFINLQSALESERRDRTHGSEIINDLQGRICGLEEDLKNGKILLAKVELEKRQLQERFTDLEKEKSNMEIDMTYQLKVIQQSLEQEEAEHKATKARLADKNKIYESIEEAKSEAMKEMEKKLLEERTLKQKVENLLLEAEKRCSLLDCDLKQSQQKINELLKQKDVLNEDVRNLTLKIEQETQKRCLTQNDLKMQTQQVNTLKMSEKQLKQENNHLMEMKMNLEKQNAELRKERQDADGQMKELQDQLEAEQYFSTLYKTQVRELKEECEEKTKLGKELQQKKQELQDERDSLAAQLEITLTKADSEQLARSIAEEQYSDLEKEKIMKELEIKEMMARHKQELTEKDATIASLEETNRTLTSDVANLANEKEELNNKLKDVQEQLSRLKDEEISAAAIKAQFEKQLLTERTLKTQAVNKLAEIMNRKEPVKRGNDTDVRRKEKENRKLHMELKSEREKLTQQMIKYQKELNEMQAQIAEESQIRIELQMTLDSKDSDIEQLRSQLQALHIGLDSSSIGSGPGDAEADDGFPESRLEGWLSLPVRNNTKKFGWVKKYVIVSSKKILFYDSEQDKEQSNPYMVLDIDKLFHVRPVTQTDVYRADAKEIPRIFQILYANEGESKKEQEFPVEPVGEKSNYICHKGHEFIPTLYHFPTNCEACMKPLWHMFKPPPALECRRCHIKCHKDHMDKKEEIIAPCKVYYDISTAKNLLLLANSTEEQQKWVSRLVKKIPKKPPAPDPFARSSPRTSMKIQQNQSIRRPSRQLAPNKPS

In the case of `COc1ccc2c(c1)CC(c1nc3cc(-c4ccncc4)cc(F)c3[nH]1)CO2` (stereo not drawn) [Example 169, 7-fluoro-2-(6-methoxychroman-3-yl)-5-(pyridin-4-yl)-1H-benzo[d]imidazole], the results for the IC50 in the experiment on smooth muscle cells, against Rhok2 and in the experiment on N2a cells were 6 nM, 6 nM and 4 nM, respectively.
